Source: patent publication US10040838B2, “CRHR2 peptide agonists and uses thereof” (JANSSEN PHARMACEUTICA NV, priority 2008, dated 2018)

Assays:
[1] = target: T1, human CRHR2 (Homo sapiens, UniProt Q13324); test: cAMP assay in h-CRHR2 transfected SK-N-MC cells; assay type: cell-based
T1 construct: expressed in transfected cells
T1 sequence (Q13324 1-411): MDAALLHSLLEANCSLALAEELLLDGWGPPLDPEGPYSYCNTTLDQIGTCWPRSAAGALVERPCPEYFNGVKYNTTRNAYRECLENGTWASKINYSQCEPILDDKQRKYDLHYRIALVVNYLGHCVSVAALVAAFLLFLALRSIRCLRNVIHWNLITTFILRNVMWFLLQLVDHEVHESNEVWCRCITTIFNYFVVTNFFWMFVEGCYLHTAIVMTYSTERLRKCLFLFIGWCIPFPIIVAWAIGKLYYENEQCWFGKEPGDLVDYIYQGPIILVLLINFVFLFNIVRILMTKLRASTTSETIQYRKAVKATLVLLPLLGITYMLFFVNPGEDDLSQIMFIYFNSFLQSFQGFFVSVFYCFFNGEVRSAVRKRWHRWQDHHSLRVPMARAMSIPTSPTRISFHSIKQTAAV
Summary of the method: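 SK-N-MC cells stably expressing human CRHR2 were stimulated with peptides (1 pM-10 μM) for 60 min at 37 °C with 10 μM IBMX, then lysed in 0.5 M HCl. cAMP was quantified by competitive [125I]-cAMP antibody flash-plate assay. Hill-equation fits gave A50/pA50; Log DR was taken relative to h-SCP control in the same batch.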

[2] = target: T1, human CRHR2; test: Radioligand binding, membranes of SK-N-MC cells transfected with human CRHR2, [125I]-anti-sauvagine-30
Procedure: The binding profile of h-SCP (SEQ ID NO:1) at CRHR2 was determined in radioligand binding studies in a membrane preparation of SK-N-MC cells stably transfected with human CRHR2 using [^125I]-anti-sauvagine-30 as the radiolabel. […] The solution was then homogenized with a Polytron tissue grinder at a setting of 10 and 7×3 s (Brinkmann Instruments, Westbury, N.Y.). The homogenate was centrifuged at 4° Celsius at 800×g for 5 min with the pellet being discarded. The supernatant was re-centrifuged at 26,892×g for 25 min at 4° Celsius with the final pellet being re-suspended in assay buffer. All binding assays were conducted in 96-well Multiscreen GF/B filter plates (Millipore, Billericay, Mass., U.S.A.) that were pre-soaked in assay buffer with 0.3% PEI for 1 hour. […] The bound radioactivity was separated by filtration using a Multiscreen Resist manifold (Millipore Corp., Billerica, Mass., U.S.A). The filters were washed three times with ice-cold PBS at pH 7.5 and radioactivity retained on the filters was quantified by its liquid scintillation measured by a TopCount counter (Packard BioScience, Boston, Mass., U.S.A). All experiments were performed in triplicate. Data from individual competition curves were expressed as the percentage of specific [^125I]-anti-sauvagine-30 or)[^125I]-([…])-sauvagine binding (B) within each experiment.

[3] = target: T2, CRHR1 (Homo sapiens, UniProt P34998); test: Radioligand binding CRHR1 assay, [125I]-(Tyr0)-sauvagine; design: expressed in transfected cells; host or cells: cell membranes
T2 sequence (P34998 24-415): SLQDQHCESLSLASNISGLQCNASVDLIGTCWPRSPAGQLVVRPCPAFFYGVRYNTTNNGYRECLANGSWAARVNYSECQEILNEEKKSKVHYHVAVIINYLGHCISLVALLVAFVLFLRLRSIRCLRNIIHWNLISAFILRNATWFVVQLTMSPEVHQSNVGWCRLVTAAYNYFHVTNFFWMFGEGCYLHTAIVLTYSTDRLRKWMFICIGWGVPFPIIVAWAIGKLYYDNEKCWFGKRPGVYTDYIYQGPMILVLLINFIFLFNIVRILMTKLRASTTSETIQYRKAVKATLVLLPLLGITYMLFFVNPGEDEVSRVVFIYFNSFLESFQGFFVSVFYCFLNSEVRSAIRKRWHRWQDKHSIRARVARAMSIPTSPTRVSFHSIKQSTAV
Procedure: The solution was then homogenized with a Polytron tissue grinder at a setting of 10 and 7×3 s (Brinkmann Instruments, Westbury, N.Y.). The homogenate was centrifuged at 4° Celsius at 800×g for 5 min with the pellet being discarded. […] All binding assays were conducted in 96-well Multiscreen GF/B filter plates (Millipore, Billericay, Mass., U.S.A.) that were pre-soaked in assay buffer with 0.3% PEI for 1 hour. […] The bound radioactivity was separated by filtration using a Multiscreen Resist manifold (Millipore Corp., Billerica, Mass., U.S.A). The filters were washed three times with ice-cold PBS at pH 7.5 and radioactivity retained on the filters was quantified by its liquid scintillation measured by a TopCount counter (Packard BioScience, Boston, Mass., U.S.A). All experiments were performed in triplicate.

[4] = Table 15, slope of competition curve

In the case of CC[C@H](C)[C@H](NC(=O)[C@@H](NC(=O)[C@H](CC(=O)O)NC(=O)[C@H](CC(C)C)NC(=O)[C@H](CC(C)C)NC(=O)[C@H](CC(C)C)NC(=O)[C@H](CCCNC(=N)N)NC(=O)[C@H](CC(N)=O)NC(=O)[C@H](CC(N)=O)NC(=O)[C@H](C)NC(=O)[C@H](C)NC(=O)[C@H](CCC(N)=O)NC(=O)[C@H](CCC(N)=O)NC(=O)[C@H](CCCCN)NC(=O)[C@H](CCC(=O)O)NC(=O)[C@H](CCCCN)NC(=O)[C@H](CCC(=O)O)NC(=O)[C@H](CCC(N)=O)NC(=O)[C@H](CCCCN)NC(=O)[C@H](CCC(=O)O)NC(=O)[C@@H](NC(=O)[C@H](CCC(=O)O)NC(=O)[C@@H](NC(=O)[C@H](CCSC)NC(=O)[C@H](CCCCN)NC(=O)[C@H](CCCNC(=N)N)NC(=O)[C@H](CC(C)C)NC(=O)[C@H](CC(C)C)NC(=O)[C@H](Cc1c[nH]cn1)NC(=O)[C@H](N)Cc1ccccc1)[C@@H](C)CC)[C@@H](C)CC)[C@@H](C)O)C(N)=O [SEQ ID NO: 118, FHLLRKMIEIEKQEKEKQQAANNRLLLDTI-NH2], the Kb [1] is reported as 15.1 nM, the Ki [2] is reported as 16.6 nM and the “CRHR2 nH” value [2, 4] is reported as 1.15 ± 0.12. The Ki [3] was 1550 nM and the “CRHR1 nH” value [3, 4] was 1.00 ± 0.49.
